Experimental data reported in ChEMBL document CHEMBL4819085, “Dipyridyl-substituted thiosemicarbazone as a potent broad-spectrum inhibitor of metallo-β-lactamases” (Bioorg Med Chem, 2021).
Values after ≈ are worked out from the molar mass of the structure shown. Active and inactive are the calls of the source. No cut-off for these calls is given here.

Experiments:
[1] = Binding affinity to Zn2+ ion assessed as UV absorption peak at 325 nm at 50 uM incubated for 5 mins in presence of ZnCl2 by spectrometry analysis
Bacteria [2] = test: Reversible inhibition of bacterial NDM-1 assessed as enzyme activity at 50 uM incubated for 6 hrs by ICP-MS analysis
Escherichia coli [3] = test: Potentiation of meropenem-induced antibacterial activity against Escherichia coli 04 assessed as meropenem MIC incubated for 24 hrs by broth microdilution method; assay type: functional
[4] = molecular target: Metallo-beta-lactamase type 2 (Klebsiella pneumoniae, UniProt C7C422); test: Inhibition of NDM-1 in Klebsiella pneumoniae using meropenem as substrate incubated for 0.5 hrs
Escherichia coli [5] = test: Antibacterial activity against Escherichia coli producing NDM-1 assessed as fractional inhibitory concentration index incubated for 24 hrs in presence of meropenem by checkerboard assay; assay type: functional
Bacteria [6] = test: Inhibition of bacterial VIM-2 expressed in Escherichia coli BL21 (DE3) at 20 uM using meropenem as substrate incubated for 1 hr by spectrometry analysis relative to control
[7] = Competitive inhibition of bacterial NDM-1 expressed in Escherichia coli BL21 (DE3) using meropenem as substrate incubated for 1 hr by Lineweaver-Burk plot analysis; set-up: species or system Bacteria
Klebsiella pneumoniae [8] = test: Potentiation of meropenem-induced antibacterial activity against Klebsiella pneumoniae assessed as meropenem MIC incubated for 24 hrs by broth microdilution method; assay type: functional
Escherichia coli [9] = test: Synergistic antibacterial activity against Escherichia coli at 16 ug/ml in presence of meropenem; assay type: functional, organism-based; conditions: dose 16.0 µg/ml
Escherichia coli [10] = test: Inhibition of Escherichia coli L1 assessed as potentiation of meropenem-induced antibacterial activity by measuring fold reduction in meropenem MIC up to 8 ug/ml incubated for 24 hrs by broth microdilution method relative to meropenem alone; conditions: dose microg/ml <=8, time 24.0 hrs
Escherichia coli [11] = test: Inhibition of Escherichia coli ImiS assessed as potentiation of meropenem-induced antibacterial activity by measuring meropenem MIC incubated for 24 hrs by broth microdilution method
Bacteria [12] = test: Inhibition of bacterial IMP-1 at 20 uM using meropenem as substrate incubated for 1 hr by spectrometry analysis relative to control
Bacteria [13] = test: Inhibition of bacterial NDM-1 expressed in Escherichia coli BL21 (DE3) at 20 uM using meropenem as substrate incubated for 1 hr by spectrometry analysis relative to control
[14] = (§1) Inhibition of bacterial VIM-2 expressed in Escherichia coli BL21 (DE3) using meropenem as substrate incubated for 1 hr by spectrometry analysis; set-up: species or system Bacteria
Bacteria [15] = test: as §1
[16] = Cytotoxicity against African green monkey Vero E6 cells assessed as cell viability at 50 uM relative to control; assay type: cell-based, Vero C1008; conditions: chlorocebus sabaeus, read-out: Activity
Escherichia coli [17] = test: Potentiation of meropenem-induced antibacterial activity against Escherichia coli 06 assessed as meropenem MIC incubated for 24 hrs by broth microdilution method; assay type: functional
[18] = (§2) Inhibition of bacterial IMP-1 using meropenem as substrate incubated for 1 hr by spectrometry analysis; set-up: species or system Bacteria
Bacteria [19] = test: as §2
Escherichia coli [20] = test: Potentiation of meropenem-induced antibacterial activity against Escherichia coli 08 assessed as meropenem MIC incubated for 24 hrs by broth microdilution method; assay type: functional
Klebsiella pneumoniae [21] = test: In vivo antibacterial activity against Klebsiella pneumoniae producing NDM-1 infected in mouse assessed as reduction in bacterial load in spleen at 2 mg/kg, ip in presence of meropenem; assay type: functional, organism-based
Klebsiella pneumoniae [22] = test: In vivo antibacterial activity against Klebsiella pneumoniae producing NDM-1 infected in mouse assessed as reduction in bacterial load in spleen at 2 mg/kg, ip; assay type: functional, organism-based
[23] = (§3) Inhibition of bacterial L1 using meropenem as substrate incubated for 1 hr by spectrometry analysis; set-up: species or system Bacteria
Bacteria [24] = test: as §3
[25] = molecular target: Metallo-beta-lactamase (Escherichia coli) (UniProt Q5U7L7); test: Inhibition of Escherichia coli VIM-2 assessed as potentiation of meropenem-induced antibacterial activity by measuring fold reduction in meropenem MIC up to 8 ug/ml incubated for 24 hrs by broth microdilution method relative to meropenem alone; conditions: dose microg/ml <=8, time 24.0 hrs
Klebsiella pneumoniae [26] = test: In vivo antibacterial activity against Klebsiella pneumoniae producing NDM-1 infected in mouse assessed as reduction in bacterial load in liver at 2 mg/kg, ip; assay type: functional, organism-based
Escherichia coli [27] = test: Antibacterial activity against Escherichia coli 06 assessed as reduction in bacterial growth incubated for 24 hrs by broth microdilution method; assay type: functional
Escherichia coli [28] = test: Inhibition of Escherichia coli NDM-1 assessed as bacterial growth rate in presence of ZnCl2 relative to control; set-up: scale not given: the % may be the effect or the level left
[29] = molecular target: Metallo-beta-lactamase (Escherichia coli) (UniProt Q5U7L7); test: Inhibition of Escherichia coli VIM-2 assessed as potentiation of meropenem-induced antibacterial activity by measuring meropenem MIC incubated for 24 hrs by broth microdilution method
Escherichia coli [30] = test: Antibacterial activity against Escherichia coli producing ImiS assessed as fractional inhibitory concentration index incubated for 24 hrs in presence of meropenem by checkerboard assay; assay type: functional
Escherichia coli [31] = test: Antibacterial activity against Escherichia coli 24 assessed as reduction in bacterial growth incubated for 24 hrs by broth microdilution method; assay type: functional
Escherichia coli [32] = test: Antibacterial activity against Escherichia coli producing NDM-1 assessed as zone of inhibition in presence of meropenem (reference value: 23.5 millimeter); assay type: functional
Escherichia coli [33] = test: Potentiation of meropenem-induced antibacterial activity against Escherichia coli 24 assessed as fold reduction in meropenem MIC incubated for 24 hrs by broth microdilution method relative to meropenem alone; assay type: functional
Escherichia coli [34] = test: Potentiation of meropenem-induced antibacterial activity against Escherichia coli 01 assessed as fold reduction in meropenem MIC incubated for 24 hrs by broth microdilution method relative to meropenem alone; assay type: functional
Escherichia coli [35] = test: Inhibition of Escherichia coli NDM-1 assessed as synergistic antibacterial activity at 4 ug/ml in presence of meropenem; conditions: dose 4.0 µg/ml
Escherichia coli [36] = test: Bactericidal activity against Escherichia coli producing NDM-1 assessed as reduction in bacterial viability at 4 ug/ml in presence of meropenem incubated for 12 hrs by time kill assay; assay type: functional, organism-based; conditions: dose 4.0 µg/ml
Escherichia coli [37] = test: Inhibition of Escherichia coli ImiS assessed as potentiation of meropenem-induced antibacterial activity by measuring fold reduction in meropenem MIC up to 8 ug/ml incubated for 24 hrs by broth microdilution method relative to meropenem alone; conditions: dose microg/ml <=8, time 24.0 hrs
Escherichia coli [38] = test: Antibacterial activity against Escherichia coli 08 assessed as reduction in bacterial growth incubated for 24 hrs by broth microdilution method; assay type: functional
Escherichia coli [39] = test: Inhibition of Escherichia coli NDM-1 assessed as potentiation of meropenem-induced antibacterial activity by measuring meropenem MIC incubated for 24 hrs by broth microdilution method
Escherichia coli [40] = test: Potentiation of meropenem-induced antibacterial activity against Escherichia coli 24 assessed as meropenem MIC incubated for 24 hrs by broth microdilution method; assay type: functional
Escherichia coli [41] = test: Antibacterial activity against Escherichia coli producing L1 assessed as fractional inhibitory concentration index incubated for 24 hrs in presence of meropenem by checkerboard assay; assay type: functional, organism-based
Enterococcus faecium = test: Antibacterial activity against vancomycin-resistant Enterococcus faecium assessed as reduction in bacterial growth incubated for 24 hrs by broth microdilution method; assay type: functional
Bacteria [42] = test: Reversible inhibition of bacterial NDM-1 assessed as residual activity at 50 uM incubated for 6 hrs by dialysis method relative to control

Chain of Metallo-beta-lactamase type 2 (C7C422 whole entry): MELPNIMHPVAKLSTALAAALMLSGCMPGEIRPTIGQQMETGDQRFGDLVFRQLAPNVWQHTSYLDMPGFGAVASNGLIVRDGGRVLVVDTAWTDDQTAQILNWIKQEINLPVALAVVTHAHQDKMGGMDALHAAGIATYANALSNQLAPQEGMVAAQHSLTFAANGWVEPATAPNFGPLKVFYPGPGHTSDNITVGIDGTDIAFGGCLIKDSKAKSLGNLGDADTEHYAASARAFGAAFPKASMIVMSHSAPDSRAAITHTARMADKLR

For `CN(C(=S)NN=C(c1ccccn1)c1ccccn1)C1CCCCC1`, the Activity [1] was “Active”, the inhibition (Bacteria [2]) was “Active” and the MIC (Escherichia coli [3]) was 16 µg/mL. The IC50 [4] was 13600 nM, the FIC (Escherichia coli [5]) was 0.313 and the inhibition (Bacteria [6]) was > 90%. For the same compound, the Ki [7] was 10.2 nM, the MIC (Klebsiella pneumoniae [8]) was 32 µg/mL and the Activity (Escherichia coli [9]) was “Active”. For the same compound, the fold change (FC) (Escherichia coli [10]) was 4, the MIC (Escherichia coli [11]) was 4 µg/mL and the inhibition (Bacteria [12]) was > 90%. The inhibition (Bacteria [13]) was > 90%, the IC50 [14] was 110 nM and the inhibition (Bacteria [15]) was “Dose-Dependent Effect”. For the same compound, the viability at 50 µM [16] was > 70%, the MIC (Escherichia coli [17]) was 64 µg/mL and the IC50 [18] was 280 nM. The inhibition (Bacteria [19]) was “Dose-Dependent Effect”, the MIC (Escherichia coli [20]) was 32 µg/mL and the inhibition (Klebsiella pneumoniae [21]) was “Active”. For the same compound, the inhibition (Klebsiella pneumoniae [22]) was “inactive”, the IC50 [23] was 1080 nM and the inhibition (Bacteria [24]) was “Dose-Dependent Effect”. The fold change (FC) [25] was 32, the inhibition (Klebsiella pneumoniae [26]) was “inactive” and the MIC (Escherichia coli [27]) was 16 µg/mL (≈ 45.3 µM). For the same compound, the Activity (Escherichia coli [28]) was 90%, the MIC [29] was 8 µg/mL and the FIC (Escherichia coli [30]) was 0.313. For the same compound, the MIC (Escherichia coli [31]) was 16 µg/mL (≈ 45.3 µM), the “inhibition zone (IZ)” value (Escherichia coli [32]) was 30.1 mm and the “fold change (FC)” value (Escherichia coli [33]) was 2. The “fold change (FC)” value (Escherichia coli [34]) was 2, the inhibition (Escherichia coli [35]) was “Active” and the inhibition (Escherichia coli [36]) was “Active”. For the same compound, the fold change (FC) (Escherichia coli [37]) was 64, the MIC (Escherichia coli [38]) was 16 µg/mL (≈ 45.3 µM) and the MIC (Escherichia coli [39]) was 8 µg/mL. The MIC (Escherichia coli [40]) was 16 µg/mL, the Activity (Escherichia coli [41]) was “inactive” and the MIC (Enterococcus faecium) was 16 µg/mL (≈ 45.3 µM). The Activity (Bacteria [42]) was 70%.
